Source: patent US6962931B2, “Self-emulsifying formulations of cholesteryl ester transfer protein inhibitors” (Pfizer Inc., priority 2001, dated 2005)
Where two headings read alike, the source gives them in different places.

Columns and labels:
[1] = Equilibrium solubility in excipients, vehicles and emulsion preconcentrates; format: physicochemical; details: equilibrium
Method: The solubility of CETP inhibitors in excipients and in formulations was determined by adding an excess of compound to the medium in question. The mixture was agitated by rotation over a period of days at ambient temperature until the concentration in solution had reached an equilibrium as judged by similar measurements for consecutive time points. Concentrations were measured by filtration of aliquots with a PTFE syringe filter and assay by HPLC as described in Example 11.
The solubility of crystalline CETP inhibitors in representative vehicles was determined by adding an excess of compound to the vehicle in question. The mixture was agitated by rotation over a period of days at ambient temperature until the concentration in solution had reached equilibrium as judged by similar measurements for consecutive time points. Concentrations were measured by filtration of aliquots with a PTFE syringe filter and assayed by HPLC.
The concentrations of CETP inhibitor in each vehicle were assayed at intervals by dilution of aliquots into acetonitrile and gradient HPLC analysis on a Water Symmetry C-8 column (3.9×150 mm, 5 micron) at 30° C. at a flow rate of 1 mL/min. […] The detection method was UV absorbance at 210 nm.

[2] = Emulsion from oil solution plus equal volume of water: particle size and stability; format: physicochemical
Method: An emulsion was prepared by combining 1 volume of oil solution with an equal volume of de-ionized water. […] The emulsion is then stirred continuously to maintain homogeneity.
An emulsion was prepared by combining 1 volume of oil solution with an equal volume of de-ionized water. This mixture was stirred for 10 minutes and then vortex mixed for 2 minutes. […] It was stirred continuously to maintain homogeneity.
An emulsion was prepared by combining combining 1 volume of oil solution with an equal volume of de-ionized water. This mixture was stirred for 10 minutes and then vortex mixed for 2 minutes. […] It was stirred continuously to maintain homogeneity.

[3] = Microsolubility estimate by repeated addition of vehicle; format: physicochemical; details: thermodynamic from solid, read-out: Microsolubility
Method: For CETP inhibitors where quantities were limited, an estimate of solubility was obtained by addition of vehicle to a known quantity of the compound and mixing in an ultrasonicator bath for 90 minutes, followed by overnight equilibration at ambient temperature. Addition of vehicle was repeated until a solution was achieved.
For CETP inhibitors where quantities were limited or the samples were amorphous solids, an estimate of solubility was obtained by addition of vehicle to a known quantity of the compound and mixing in an ultrasonicator bath for 90 minutes, followed by overnight equilibration at ambient temperature. Addition of vehicle was repeated until a solution was achieved. From the total volume of vehicle added to solubilize the CETP inhibitor compound, the solubility value, or so-called microsolubility, was calculated by the equation: Weight of sample (mgA)/vehicle volume (mL)=Microsolubility (mgA/mL)

PK in monkeys = format: in vivo, cynomologous monkeys
Source text: Use of an emulsion prepared from crystalline (ethanolate) drug allowed comparible exposures to be achieved to those for more soluble amorphous drug in Miglyol® alone. Excellent dose proportionality was also obtained.

CCOC(=O)N1c2ccc(C(F)(F)F)cc2[C@@H](N(Cc2cc(C(F)(F)F)cc(C(F)(F)F)c2)C(=O)OC)C[C@H]1CC [Compound A, [2R,4S] 4-[(3,5-bis-trifluoromethyl-benzyl)-methoxycarbonyl-amino]-2-ethyl-6-trifluoromethyl-3,4-dihydro-2H-quinoline-1-carboxylic acid ethyl ester]
Solubility ([1]; ambient temperature, vehicle Water): <0.00004 mgA/ml | Solubility ([1]; Miglyol 812/EtOH/Cremophor EL (76/4/20)): 89 mgA/ml | Solubility ([1]; Miglyol 812/Ethyl lactate/Cremophor EL 30/50/20): 256 mgA/ml | Solubility ([1]; Miglyol 812/Ethyl lactate/Cremophor EL 40/40/20): 221 mgA/ml | Solubility ([1]; Miglyol 812/Ethyl lactate/Cremophor EL 50/30/20): 196 mgA/ml | Solubility ([1]; Miglyol 812/Ethyl lactate/Cremophor EL 60/20/20): 143 mgA/ml | Solubility ([1]; Miglyol 812/Ethyl lactate/Cremophor EL 65/15/20): 120 mgA/ml | Solubility ([1]; Miglyol 812/Ethyl lactate/Cremophor EL 70/10/20): 99 mgA/ml | Solubility ([1]; Miglyol 812/Ethyl lactate/Cremophor EL 72/8/20): 94 mgA/ml | Solubility ([1]; Miglyol 812/Ethyl lactate/Labrasol (72/8/20)): 98 mgA/ml | Solubility ([1]; Miglyol 812/Ethyl lactate/Tagat TO (72/8/20)): 87 mgA/ml | Solubility ([1]; Miglyol 812/Peppermint Oil/Cremophor EL (72/8/20)): 72 mgA/ml | Solubility ([1]; Miglyol 812/Propylene carbonate/Cremophor EL 30/50/20): 228 mgA/ml | Solubility ([1]; Miglyol 812/Propylene carbonate/Cremophor EL 40/40/20): 209 mgA/ml | Solubility ([1]; Miglyol 812/Propylene carbonate/Cremophor EL 55/25/20): 158 mgA/ml | Solubility ([1]; Miglyol 812/Propylene carbonate/Cremophor EL 72/8/20): 108 mgA/ml | Solubility ([1]; Miglyol 812/Propylene carbonate/Labrasol (72/8/20)): 116 mgA/ml | Solubility ([1]; Miglyol 812/Propylene carbonate/Tagat TO (72/8/20)): 111 mgA/ml | Solubility ([1]; Miglyol 812/Triacetin/Cremophor EL 30/50/20): 198 mgA/ml | Solubility ([1]; Miglyol 812/Triacetin/Cremophor EL 40/40/20): 183 mgA/ml | Solubility ([1]; Miglyol 812/Triacetin/Cremophor EL 50/30/20): 158 mgA/ml | Solubility ([1]; Miglyol 812/Triacetin/Cremophor EL 60/20/20): 133 mgA/ml | Solubility ([1]; Miglyol 812/Triacetin/Cremophor EL 65/15/20): 111 mgA/ml | Solubility ([1]; Miglyol 812/Triacetin/Cremophor EL 72/8/20): 94 mgA/ml | Solubility ([1]; vehicle Capmul MCM): 41 mgA/ml | Solubility ([1]; vehicle Cremophor EL): 20 mgA/ml | Solubility ([1]; vehicle Dimethylisosorbide): 439 mgA/ml | Solubility ([1]; vehicle Ethyl lactate): 400 mgA/ml | Solubility ([1]; vehicle Glycofurol): 99 mgA/ml | Solubility ([1]; vehicle Labrafil M 1944): 26 mgA/ml | Solubility ([1]; vehicle Labrafil M 2125): 27 mgA/ml | Solubility ([1]; vehicle Labrasol): 41 mgA/ml | Solubility ([1]; vehicle Lauroglycol FCC): 70 mgA/ml | Solubility ([1]; vehicle Maisine 35-1): 9 mgA/ml | Solubility ([1]; vehicle Miglyol 812): 65 mgA/ml | Solubility ([1]; vehicle Miglyol 812/Capmul MCM (80/20)): 74 mgA/ml | Solubility ([1]; vehicle Miglyol 812/Capmul MCM/Polysorbate 80 (20/60/20)): 63 mgA/ml | Solubility ([1]; vehicle Miglyol 812/Capmul MCM/Polysorbate 80 (40/40/20)): 58 mgA/ml | Solubility ([1]; vehicle Miglyol 812/Cremophor EL 80/20): 68 mgA/ml | Solubility ([1]; vehicle Miglyol 812/Labrafil M 1944 (80/20)): 59 mgA/ml | Solubility ([1]; vehicle Miglyol 812/Labrafil M 2125 (80/20)): 57 mgA/ml | Solubility ([1]; vehicle Miglyol 812/Labrasol (80/20)): 69 mgA/ml | Solubility ([1]; vehicle Miglyol 812/Peppermint oil (80/20)): 93 mgA/ml | Solubility ([1]; vehicle Miglyol 812/Peppermint oil (90/10)): 79 mgA/ml | Solubility ([1]; vehicle Miglyol 812/Tagat TO (80/20)): 58 mgA/ml | Solubility ([1]; vehicle Miglyol 812/propylene carbonate/Cremophor EL (60/20/20)): 146 mgA/ml | Solubility ([1]; vehicle Miglyol 812/triacetin (90/10), not completely miscible): 106 mgA/ml | Solubility ([1]; vehicle N-methyl-2-pyrrolidone): 813 mgA/ml | Solubility ([1]; vehicle Oleic acid): 8.5 mgA/ml | Solubility ([1]; vehicle Olive oil): 17 mgA/ml | Solubility ([1]; vehicle Olive oil/Capmul MCM (80/20)): 23 mgA/ml | Solubility ([1]; vehicle Olive oil/Peppermint oil (90/10)): 25 mgA/ml | Solubility ([1]; vehicle Peceol): 10 mgA/ml | Solubility ([1]; vehicle Plurol Oleique CC 497): 17 mgA/ml | Solubility ([1]; vehicle Pluronic L-44): 36 mgA/ml | Solubility ([1]; vehicle Polysorbate 80 (Tween 80)): 23 mgA/ml | Solubility ([1]; vehicle Propylene carbonate): 227 mgA/ml | Solubility ([1]; vehicle Tagat TO (Polyoxyethylene glycerol trioleate)): 32 mgA/ml | Solubility ([1]; vehicle Transcutol P): 174 mgA/ml | Solubility ([1]; vehicle Triacetin): 235 mgA/ml | Solubility ([1]; vehicle Triethyl citrate): 240 mgA/ml | Solubility ([1]; vehicle peppermint oil): 266 mgA/ml | chemical degradation or crystallization ([2]; Example 17 oil after storage for 8 days or emulsion after 24 hr): No chemical degradation based on HPLC analysis or crystallization based on microscopic examination was detected | average particle size of emulsion ([2]; Example 17 oil solution (Miglyol 812/propylene carbonate/Cremophor EL, 115 mg/g) plus equal volume water): less than 10 microns | chemical degradation or crystallization ([2]; Example 18 oil after storage for 8 days or emulsion after 24 hr): No chemical degradation based on HPLC analysis or crystallization based on microscopic examination was detected | average particle size of emulsion ([2]; Example 18 oil solution (olive oil/Cremophor EL, 13 mg/g) plus equal volume water): less than 10 microns | Solubility ([3]; Capmul MCM, oil or lipid): > 300 mg/mL | Solubility ([3]; Cotton oil, oil or lipid): < 75 mg/mL | Solubility ([3]; Crodamol GTCC, oil or lipid): < 75 mg/mL | Solubility ([3]; Glycerin, organic solvent or mixture): < 75 mg/mL | Solubility ([3]; Incromega TG2671, oil or lipid): < 75 mg/mL | Solubility ([3]; Linoleic acid, oil or lipid): < 60 mg/mL | Solubility ([3]; Miglyol 810, oil or lipid): < 100 mg/mL | Solubility ([3]; Miglyol 812, oil or lipid): > 300 mg/mL | Solubility ([3]; Olive oil, oil or lipid): > 300 mg/mL | Solubility ([3]; Safflower oil, oil or lipid): > 300 mg/mL | Solubility ([3]; mineral oil, oil or lipid): < 75 mg/mL | Solubility ([3]; oil or lipid): < 75 mg/mL | Solubility ([3]; propylene glycol, organic solvent or mixture): < 75 mg/mL | Cmax (PK in monkeys; crystalline ethanolate, Olive oil/Cremophor/water 40/10/50, 20 mg/kg, 20 mg/kg): 160 ng/mL | Cmax (PK in monkeys; monkey, in vivo, oral, 20 mg/kg, crystalline ethanolate, Olive oil/Cremophor/water 40/10/50, 20 mg/kg, read-out: Cmax): 100 ng/mL | AUC (PK in monkeys; monkey, in vivo, oral, 50 mg/kg, crystalline ethanolate, Miglyol/Cremophor/water 40/10/50, 50 mg/kg (BID)): 13000 to 15000 ng·h/mL | Cmax (PK in monkeys; monkey, in vivo, oral, 50 mg/kg, crystalline ethanolate, Miglyol/Cremophor/water 40/10/50, 50 mg/kg (BID), read-out: Cmax): 800 to 1100 ng/mL | AUC (PK in monkeys; monkey, in vivo, oral, 100 mg/kg, amorphous anhydrous, Miglyol): ~29000 ng·h/mL | Cmax (PK in monkeys; monkey, in vivo, oral, 100 mg/kg, amorphous anhydrous, Miglyol, 100 mg/kg, read-out: Cmax): ~1600 ng/mL | Cmax (PK in monkeys; monkey, in vivo, oral, 100 mg/kg, crystalline ethanolate, Miglyol, 100 mg/kg, read-out: Cmax): ~170 ng/mL | AUC (PK in monkeys; monkey, in vivo, oral, 100 mg/kg, crystalline ethanolate, Miglyol/Cremophor/water 40/10/50, 100 mg/kg (BID)): 24000 to 29000 ng·h/mL | Cmax (PK in monkeys; monkey, in vivo, oral, 100 mg/kg, crystalline ethanolate, Miglyol/Cremophor/water 40/10/50, 100 mg/kg (BID), read-out: Cmax): 1600 to 2300 ng/mL | Cmax (PK in monkeys; monkey, in vivo, oral, 100 mg/kg, crystalline ethanolate, Miglyol/Cremophor/water 40/10/50, 100 mg/kg, read-out: Cmax): 400 to 1800 ng/mL
